In patent publication EP0565593B1, “REDUCING PESTICIDAL INTERACTIONS IN CROPS” (priority 1990, dated 1992):
Where “and” joins values, the source holds several entries; their conditions need not be identical. Equal entries are not always repeated. Where two headings read alike, the source gives them in different places.

Key:
[1] = system: Giant foxtail (GIFT); experiment: whole plant or invertebrate; type: in vivo
[2] = system: Corn
[3] = system: Velvetleaf (VELE); type: in vivo, Abutilon theophrasti
[4] = system: Corn; remark: listed apart in the source
[5] = system: Velvetleaf (VELE); experiment: whole plant or invertebrate; type: in vivo, Abutilon theophrasti
[6] = system: Shattercane (SHCA); type: in vivo
[7] = Table 51, Biocide No. 8 alone 8.96 kg/Ha PPI, observed 13 days after treatment
[8] = Table 50, Biocide No. 8 alone 8.96 kg/Ha PPI, no herbicide, no antidote
[9] = […], PPI, 14 days after PPI (Table 34)
[10] = […], observed 8 days later (Table 32)
[11] = […], observed 8 days later (Table 33)
[12] = […], PPI, 13 days after PPI (Table 31)
[13] = […], observed 9 days later (Table 29)
[14] = […], observed 9 days later (Table 30)
[15] = […], observed 7 days after POE (Table 35)
[16] = […], observed 7 days after POE (Table 36)
[17] = Antidote 4.48 + Biocide No. 1 8.96 Kg/Ha PPI, Herb. No. 8 0.07, 5 DAP, before herbicide application
[18] = Antidote 4.48 + Biocide No. 1 8.96 Kg/Ha PPI, Herb. No. 8 0.07 POE, 13 DAP
[19] = Antidote 4.48 + Biocide No. 1 8.96 Kg/Ha PPI, Herbicide No. 7 0.28 POE, 13 days after planting
[20] = Herb. […], 5 DAP, before herbicide application
[21] = Table 14: Herbicide No. 7 (ACCENT) 0.84 Kg/Ha POE + Biocide No. 2 8.96 Kg/Ha PPI + antidote 4.48 Kg/Ha PPI, 13 days after planting, 8 days after herbicide
[22] = […], 13 days after planting, 8 days after herbicide
[23] = […], observed 10 days after herbicide application
[24] = Herb. […], 13 DAP, after herbicide application

SMILES: CCCSP(=O)(OCC)SCCC [Biocide No. 8, O-Ethyl-S,S-dipropyl phosphorothioate, reference compound]
- % Inhibition GIFT [1, 7]: 90%
- corn injury ([2]; MOCAP alone at 8.96 kg/ha, Example 51): corn stunting, leaf malformations and stand loss
- % Inhibition Corn [2, 8]: 30%
- % Inhibition VELE [3, 8]: 15%
- corn injury ([4]; MOCAP applied alone, PPI, Example 52): significant corn injury
- % Inhibition Corn [4, 7]: 30%
- % Inhibition VELE [5, 7]: 20%
- % Inhibition SHCA [6, 8]: 85%

SMILES: CCOC(=O)COC(c1c(C)cccc1C)c1c(C)cccc1C [compound 58]
- % Inhibition GIFT [1, 9]: 60%
- % Inhibition Corn [2, 10]: 55%
- % Inhibition Corn [2, 11]: 45%
- % Inhibition VELE [3, 10]: 85%
- % Inhibition VELE [3, 11]: 70%
- % Inhibition Corn [4, 9]: 30%
- % Inhibition VELE [5, 9]: 90%
- % Inhibition SHCA [6, 10]: 70%
- % Inhibition SHCA [6, 11]: 30%

SMILES: CC1(C)OC(c2cccs2)CN1C(=O)C(Cl)Cl (stereo not shown) [compound 22]
- % Inhibition GIFT [1, 12]: 70%
- % Inhibition Corn [2, 13]: 20%
- % Inhibition Corn [2, 14]: 40%
- % Inhibition VELE [3, 13]: 85%
- % Inhibition VELE [3, 14]: 75%
- % Inhibition Corn [4, 12]: 45%
- % Inhibition VELE [5, 12]: 80%
- % Inhibition SHCA [6, 13]: 65%
- % Inhibition SHCA [6, 14]: 25%

SMILES: CCOC(=O)c1sc(Br)nc1C(F)(F)F [compound 66]
- % Inhibition GIFT ([1]; in vivo): 70%
- % Inhibition Corn [2, 15]: 30%
- % Inhibition Corn [2, 16]: 50%
- % Inhibition VELE [3, 15]: 80%
- % Inhibition VELE [3, 16]: 60%
- % Inhibition Corn ([4]; in vivo): 50%
- % Inhibition VELE ([5]; in vivo): 90%
- % Inhibition SHCA [6, 15]: 60%
- % Inhibition SHCA [6, 16]: 25%

SMILES: Cc1ccc(SC2(C#N)CC2)cc1C [compound 73]
- % Inhibition GIFT ([1]; in vivo): 90%
- % Inhibition Corn [2, 15]: 70%
- % Inhibition Corn [2, 16]: 70%
- % Inhibition VELE [3, 15]: 75%
- % Inhibition VELE [3, 16]: 70%
- % Inhibition Corn ([4]; in vivo): 70%
- % Inhibition VELE ([5]; in vivo): 90%
- % Inhibition SHCA [6, 15]: 70%
- % Inhibition SHCA [6, 16]: 35%

SMILES: O=C(COC(c1ccccc1)c1cccc(C(F)(F)F)c1)OCC(F)(F)F (stereo not shown) [compound 53]
- % Inhibition GIFT [1, 9]: 70%
- % Inhibition Corn [2, 10]: 50%
- % Inhibition Corn [2, 11]: 50%
- % Inhibition VELE [3, 10]: 85%
- % Inhibition VELE [3, 11]: 70%
- % Inhibition Corn [4, 9]: 60%
- % Inhibition VELE [5, 9]: 100%
- % Inhibition SHCA [6, 10]: 80%
- % Inhibition SHCA [6, 11]: 25%

SMILES: CCCCCCCCOC(=O)c1sc(Cl)nc1C(F)(F)F [compound 63]
- % Inhibition GIFT ([1]; in vivo): 70%
- % Inhibition Corn [2, 15]: 30%
- % Inhibition Corn [2, 16]: 55%
- % Inhibition VELE [3, 15]: 80%
- % Inhibition VELE [3, 16]: 65%
- % Inhibition Corn ([4]; in vivo): 65%
- % Inhibition VELE ([5]; in vivo): 90%
- % Inhibition SHCA [6, 15]: 70%
- % Inhibition SHCA [6, 16]: 40%

SMILES: O=C(COC(c1ccccc1)c1ccccc1)Oc1cccc([N+](=O)[O-])c1 [compound 57]
- % Inhibition GIFT [1, 9]: 70%
- % Inhibition Corn [2, 10]: 15%
- % Inhibition Corn [2, 11]: 65%
- % Inhibition VELE [3, 10]: 85%
- % Inhibition Corn [4, 9]: 65%
- % Inhibition VELE [5, 9]: 80%
- % Inhibition SHCA [6, 10]: 80%
- % Inhibition SHCA [6, 11]: 35%

SMILES: CCOC(=O)c1cnoc1-c1ccc(Cl)cc1Cl [compound 30]
- % Inhibition GIFT ([1]; in vivo): 65% and 80% and 90% and 75% and 95%
- % Inhibition 5 DAP Corn [2, 17]: 10%
- % Inhibition 13 DAP Corn [2, 18]: 50%
- % Inhibition Corn [2, 19]: 55%
- % Inhibition 5 DAP Corn [2, 20]: 0%
- % Inhibition Corn [2, 21]: 30%
- % Inhibition Corn [2, 22]: 25%
- % Inhibition Corn [2, 23]: 70%
- % Inhibition 5 DAP Corn ([2]; in vivo): 10%
- % Inhibition 13 DAP Corn ([2]; in vivo): 56%
- % Inhibition Corn ([2]; in vivo): 50% and 35% and 40%
- effect on corn before application of the herbicide ([2]; in vivo): Some injury
- % Inhibition 5 DAP VELE [3, 17]: 75%
- % Inhibition 13 DAP VELE [3, 18]: 95%
- % Inhibition VELE [3, 19]: 95%
- % Inhibition 5 DAP VELE [3, 20]: 90%
- % Inhibition 13 DAP VELE [3, 24]: 95%
- % Inhibition VELE [3, 21]: 100%
- % Inhibition VELE [3, 22]: 100%
- % Inhibition VELE [3, 23]: 95%
- % Inhibition 5 DAP VELE ([3]; in vivo): 80%
- % Inhibition 13 DAP VELE ([3]; in vivo): 95%
- % Inhibition VELE ([5]; in vivo): 90% and 95% and 100%
- % Inhibition 5 DAP SHCA [6, 17]: 50%
- % Inhibition 13 DAP SHCA [6, 18]: 75%
- % Inhibition SHCA [6, 19]: 85%
- % Inhibition 13 DAP SHCA [6, 24]: 95%
- % Inhibition SHCA [6, 21]: 90%
- % Inhibition SHCA [6, 22]: 90%
- % Inhibition SHCA [6, 23]: 70%
- % Inhibition 5 DAP SHCA ([6]; in vivo): 25%
- % Inhibition 13 DAP SHCA ([6]; in vivo): 95%
- % Inhibition SHCA ([6]; in vivo): 90% and 60% and 70%
